The results in this text go back to US10562891B2, “Quinazolinones as PARP14 inhibitors” (Ribon Therapeutics Inc., priority 2017, dated 2020).

The structures appear in SMILES notation. pIC50: −log10 of the molar value.

Test [1] concerns the target catalytic domain of human PARP14 (Homo sapiens (Human), UniProt Q460N5). Briefly: Enzymatic assay for inhibition of PARP14 (DELFIA, auto-modification with biotin-NAD). The settings on record: auto-modification of PARP14 by biotin-NAD, 50 nM PARP14, 3 μM biotin-NAD. In kind it is biochemical. The essentials: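 DELFIA auto-modification read-out: europium-streptavidin bound to biotin-NAD incorporated onto nickel-captured His-TEV PARP14 catalytic domain. Compound preincubated 30 min, then 50 nM enzyme with 3 μM biotin-NAD reacted 3 h, all at 25 °C, pH 8, then NAD quench. Percent inhibition normalized to rucaparib/DMSO wells, fitted (4- or 3-parameter) for IC50.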

For a further test, the system named is 4T1 cells. Briefly: Inhibition of tumor growth in the 4T1 murine syngeneic model. The settings on record: 4T1 orthotopic in mammary fat pad, 500 mg/kg PO BID*21 days, treatment group versus vehicle group, study terminated D20. It counts as in vivo, female BALB/c mice. The text has this:
FIGS. 3A and 4A illustrate that a PARP14 inhibitor (Example 235) reduces tumor growth in the murine syngeneic models (A) 4T1 and (B) LL/2. For the 4T1 study (FIGS. 3A and 3B), female BALB/c mice were inoculated orthotopically in the mammary fat pad with 1×10^5 4T1 cells (ATCC, CRL-2539™) for tumor development. Seven days after tumor inoculation, 16 mice with tumor size ranging from 41-78 mm^3 (average tumor size 56 mm^3) were selected and assigned into 2 groups using stratified randomization with 8 mice in each group based upon their tumor volumes. The treatments were started from the next day post randomization (defined as randomization day DO) and were treated with vehicle (0.5% methylcellulose +0.2% Tween 80), or the compound of Example 235 (500 mg/kg PO BID*21 days). The tumor sizes were measured three times per week during the treatment. The entire study was terminated on D20.
(§1) Statistical significance, calculated using 2way ANOVA multiple comparisons in which each treatment group was compared to vehicle control, is indicated by an asterisk. Statistics were performed on groups with less than 20% animal loss (D20 for 4T1, D17 for LL/2). Survival benefit was determined for the LL/2 study (FIG. 4B). Individual mice were euthanized once they reached the termination endpoint (TV>2000 mm3). […]

For a further test, the system named is LL/2 cells. Put plainly: Inhibition of tumor growth and survival in the LL/2 murine syngeneic model. It counts as in vivo, female C57BL/6 mice. The conditions noted are these: LL/2 subcutaneous right flank, 500 mg/kg PO BID*21 days, treatment group versus vehicle group, study terminated D21.
Description: For the LL/2 study (FIGS. 4A-4C), female C57BL/6 mice were inoculated subcutaneously in the right flank with 5×10^5 LL/2 cells (ATCC, CRL-1642™) for tumor development. Five days after tumor inoculation, 16 mice with tumor size ranging from 37-72 mm^3 (average tumor size 51 mm^3) were selected and assigned into 2 groups using stratified randomization with 8 mice in each group based upon their tumor volumes. The treatments were started from the next day post randomization (defined as randomization day DO) and were treated with vehicle (0.5% methylcellulose +0.2% Tween 80), or the compound of Example 235 (500 mg/kg PO BID*21 days). The tumor sizes were measured three times per week during the treatment. The entire study was terminated on D21.
as §1, with “mm3). The time from treatment initiation to termination was deemed as its survival time and plotted in a Kaplan-Meier survival curve format. Mice remaining at study end date of 21 days were euthanized at day 21 after treatment initiation.” for “mm3).”

As usually defined, the pIC50 is −log10 of the IC50, conventionally taken in molar units. The low end stands for a high IC50, the high end for a low IC50.

Sequence of catalytic domain of human PARP14 (Q460N5 1611-1801): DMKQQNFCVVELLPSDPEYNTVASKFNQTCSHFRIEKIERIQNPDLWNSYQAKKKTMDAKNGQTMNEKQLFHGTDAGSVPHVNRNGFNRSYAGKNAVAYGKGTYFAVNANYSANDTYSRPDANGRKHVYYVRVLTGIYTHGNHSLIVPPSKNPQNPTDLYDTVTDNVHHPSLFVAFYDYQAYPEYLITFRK

Turning to `O=c1[nH]c(CS[C@H]2CC[C@H](O)CC2)nc2cc(OCC3CC3)cc(F)c12` [Example 235, 7-(Cyclopropylmethoxy)-5-fluoro-2-(((trans-4-hydroxycyclohexyl)thio)methyl)quinazolin-4(3H)-one], in test [1], the pIC50 is more than 6.00. Moreover, the Tumor growth inhibition was found to be 31% in the test with 4T1 cells and 63% in the test on LL/2 cells.
